Assay results reported in ChEMBL document CHEMBL5465560, “Selectivity Literature for EUbOPEN Chemogenomic Library” (2024).
One block for each compound: values may come before it.

Legend:
[1] = target: RAC-alpha serine/threonine-protein kinase (Homo sapiens, UniProt P31749); experiment: Selectivity interaction (Kinase panel (33PanQinase(R) Activity Assay)) EUB0000877a AKT1
[2] = target: T1, Dual specificity tyrosine-phosphorylation-regulated kinase 2 (Homo sapiens) (UniProt Q92630); experiment: Selectivity interaction (Upstate Kinase Profiler service (Millipore)) EUB0000056c DYRK2; conditions: at 1 µM
T1 sequence (whole entry): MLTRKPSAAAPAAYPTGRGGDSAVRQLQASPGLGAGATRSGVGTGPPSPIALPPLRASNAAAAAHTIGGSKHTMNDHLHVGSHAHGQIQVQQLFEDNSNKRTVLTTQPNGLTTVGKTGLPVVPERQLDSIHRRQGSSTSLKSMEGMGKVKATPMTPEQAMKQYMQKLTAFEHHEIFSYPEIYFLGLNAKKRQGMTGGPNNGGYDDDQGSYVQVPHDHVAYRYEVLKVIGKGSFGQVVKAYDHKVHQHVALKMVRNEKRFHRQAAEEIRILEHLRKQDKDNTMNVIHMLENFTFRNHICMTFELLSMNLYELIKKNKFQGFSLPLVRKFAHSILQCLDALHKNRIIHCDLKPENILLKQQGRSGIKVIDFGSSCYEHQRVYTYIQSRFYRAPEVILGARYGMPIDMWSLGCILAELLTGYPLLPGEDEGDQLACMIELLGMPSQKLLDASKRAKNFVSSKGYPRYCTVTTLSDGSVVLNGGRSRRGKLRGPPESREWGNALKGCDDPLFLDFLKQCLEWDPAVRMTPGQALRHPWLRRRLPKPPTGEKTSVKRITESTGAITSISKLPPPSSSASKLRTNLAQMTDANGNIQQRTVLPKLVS

[3] = target: T2, NUAK family SNF1-like kinase 1 (Homo sapiens) (UniProt O60285); conditions: at 10 µM
T2 sequence (whole entry): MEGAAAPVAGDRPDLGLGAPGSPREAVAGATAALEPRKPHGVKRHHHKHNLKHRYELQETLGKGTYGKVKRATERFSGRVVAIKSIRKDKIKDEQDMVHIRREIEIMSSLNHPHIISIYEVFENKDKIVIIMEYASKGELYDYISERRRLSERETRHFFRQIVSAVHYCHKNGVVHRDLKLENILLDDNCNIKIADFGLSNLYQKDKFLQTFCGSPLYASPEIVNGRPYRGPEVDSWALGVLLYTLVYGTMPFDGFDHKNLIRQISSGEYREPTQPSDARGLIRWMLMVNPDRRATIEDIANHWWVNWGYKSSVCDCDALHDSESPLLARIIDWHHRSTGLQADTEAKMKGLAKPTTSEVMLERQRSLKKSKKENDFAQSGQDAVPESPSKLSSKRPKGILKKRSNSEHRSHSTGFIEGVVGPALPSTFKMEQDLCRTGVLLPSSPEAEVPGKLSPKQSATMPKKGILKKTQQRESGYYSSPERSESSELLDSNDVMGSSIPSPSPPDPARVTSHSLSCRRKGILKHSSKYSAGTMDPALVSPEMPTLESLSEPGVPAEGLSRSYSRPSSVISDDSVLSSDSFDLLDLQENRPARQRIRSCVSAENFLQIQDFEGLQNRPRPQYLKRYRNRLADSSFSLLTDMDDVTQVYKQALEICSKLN

[4] = target: Serine/threonine-protein kinase PAK 2 (Homo sapiens) (UniProt Q13177); conditions: at 10 µM
Serine/threonine-protein kinase PAK 2 (Homo sapiens), sequence (Q13177 whole entry): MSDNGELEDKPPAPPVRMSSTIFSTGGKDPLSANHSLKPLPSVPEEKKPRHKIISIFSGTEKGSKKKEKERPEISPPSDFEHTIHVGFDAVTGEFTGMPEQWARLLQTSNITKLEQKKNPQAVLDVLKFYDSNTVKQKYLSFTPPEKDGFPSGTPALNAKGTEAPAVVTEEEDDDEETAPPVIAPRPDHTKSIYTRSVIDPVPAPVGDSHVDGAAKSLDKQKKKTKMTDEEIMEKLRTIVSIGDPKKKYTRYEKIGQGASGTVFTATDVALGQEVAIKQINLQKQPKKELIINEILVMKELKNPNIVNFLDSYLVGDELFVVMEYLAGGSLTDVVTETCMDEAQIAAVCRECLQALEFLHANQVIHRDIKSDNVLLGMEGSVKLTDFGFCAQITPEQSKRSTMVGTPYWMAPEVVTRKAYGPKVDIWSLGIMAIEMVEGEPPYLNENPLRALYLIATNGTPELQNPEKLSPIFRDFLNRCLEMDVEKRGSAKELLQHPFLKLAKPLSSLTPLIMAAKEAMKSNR

[5] = target: Calcium/calmodulin-dependent protein kinase type II subunit gamma (Homo sapiens) (UniProt Q13555); experiment: Selectivity interaction (KinomeScan (DiscoverX)) EUB0001049a CAMK2G; conditions: at 1 µM
Calcium/calmodulin-dependent protein kinase type II subunit gamma (Homo sapiens), sequence (Q13555 whole entry): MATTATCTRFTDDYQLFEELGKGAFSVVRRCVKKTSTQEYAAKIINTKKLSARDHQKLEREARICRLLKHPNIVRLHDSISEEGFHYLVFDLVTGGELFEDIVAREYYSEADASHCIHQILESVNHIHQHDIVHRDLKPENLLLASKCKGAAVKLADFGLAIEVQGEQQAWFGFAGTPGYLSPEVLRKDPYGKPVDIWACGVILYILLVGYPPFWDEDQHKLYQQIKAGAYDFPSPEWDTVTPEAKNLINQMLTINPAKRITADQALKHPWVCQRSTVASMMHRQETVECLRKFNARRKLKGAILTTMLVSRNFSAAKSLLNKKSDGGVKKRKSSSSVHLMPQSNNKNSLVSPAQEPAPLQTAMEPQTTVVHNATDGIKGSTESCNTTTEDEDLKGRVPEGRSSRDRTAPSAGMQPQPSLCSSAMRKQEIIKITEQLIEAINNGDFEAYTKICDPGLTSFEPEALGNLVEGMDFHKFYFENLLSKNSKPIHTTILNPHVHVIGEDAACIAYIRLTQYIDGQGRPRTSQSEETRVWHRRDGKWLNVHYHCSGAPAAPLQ

[6] = system: Proto-oncogene tyrosine-protein kinase receptor Ret (Homo sapiens), P07949 [M918T]; experiment: (§1) Selectivity interaction (Ambit KINOMEscan and KiNATiv profiling in Jurkat cells) EUB0000090b RET; assay type: cell-based; conditions: at 1 µM
[7] = system: Proto-oncogene tyrosine-protein kinase receptor Ret (Homo sapiens), P07949 [V804M]; experiment: as §1; assay type: cell-based; conditions: at 1 µM
[8] = system: Proto-oncogene tyrosine-protein kinase receptor Ret (Homo sapiens), P07949 [V804L]; experiment: as §1; assay type: cell-based; conditions: at 1 µM
Proto-oncogene tyrosine-protein kinase receptor Ret (Homo sapiens), P07949 [V804L], sequence (P07949 whole entry V804L): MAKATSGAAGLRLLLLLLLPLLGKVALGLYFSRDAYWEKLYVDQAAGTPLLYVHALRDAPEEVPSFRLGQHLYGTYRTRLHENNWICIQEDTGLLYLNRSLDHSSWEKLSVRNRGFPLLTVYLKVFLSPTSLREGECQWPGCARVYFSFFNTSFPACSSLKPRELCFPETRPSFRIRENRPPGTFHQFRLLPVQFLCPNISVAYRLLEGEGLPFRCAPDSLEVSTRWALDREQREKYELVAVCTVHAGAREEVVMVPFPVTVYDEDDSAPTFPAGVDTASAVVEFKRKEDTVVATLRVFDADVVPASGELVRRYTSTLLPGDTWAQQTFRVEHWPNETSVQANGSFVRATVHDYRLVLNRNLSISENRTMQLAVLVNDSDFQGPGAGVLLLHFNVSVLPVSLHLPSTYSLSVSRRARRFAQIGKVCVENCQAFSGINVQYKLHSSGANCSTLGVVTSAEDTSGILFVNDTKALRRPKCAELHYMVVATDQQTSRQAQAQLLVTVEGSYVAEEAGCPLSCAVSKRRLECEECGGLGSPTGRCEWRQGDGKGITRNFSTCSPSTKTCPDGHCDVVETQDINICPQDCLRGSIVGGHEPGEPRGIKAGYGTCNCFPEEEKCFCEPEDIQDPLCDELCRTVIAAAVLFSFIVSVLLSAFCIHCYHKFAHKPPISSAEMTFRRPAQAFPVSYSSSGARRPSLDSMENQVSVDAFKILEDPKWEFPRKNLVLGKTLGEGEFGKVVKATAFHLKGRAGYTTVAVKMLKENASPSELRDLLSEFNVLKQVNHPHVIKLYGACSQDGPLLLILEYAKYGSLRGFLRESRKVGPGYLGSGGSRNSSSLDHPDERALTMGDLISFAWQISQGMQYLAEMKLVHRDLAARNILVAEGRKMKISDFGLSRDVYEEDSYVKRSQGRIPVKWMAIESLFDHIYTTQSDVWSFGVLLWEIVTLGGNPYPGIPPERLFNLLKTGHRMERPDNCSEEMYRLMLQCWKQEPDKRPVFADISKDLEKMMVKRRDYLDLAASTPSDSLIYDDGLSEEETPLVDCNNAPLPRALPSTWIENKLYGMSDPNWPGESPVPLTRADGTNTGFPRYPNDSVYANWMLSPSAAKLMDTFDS

[9] = target: Proto-oncogene tyrosine-protein kinase receptor Ret (Homo sapiens, UniProt P07949); experiment: as §1; assay type: cell-based; conditions: at 1 µM
[10] = target: Serine/threonine-protein kinase PAK 1 (Homo sapiens) (UniProt Q13153); experiment: Selectivity interaction (KinomeScan (DiscoverX)) EUB0000655a PAK1; conditions: at 10 µM
Serine/threonine-protein kinase PAK 1 (Homo sapiens), sequence (Q13153 whole entry): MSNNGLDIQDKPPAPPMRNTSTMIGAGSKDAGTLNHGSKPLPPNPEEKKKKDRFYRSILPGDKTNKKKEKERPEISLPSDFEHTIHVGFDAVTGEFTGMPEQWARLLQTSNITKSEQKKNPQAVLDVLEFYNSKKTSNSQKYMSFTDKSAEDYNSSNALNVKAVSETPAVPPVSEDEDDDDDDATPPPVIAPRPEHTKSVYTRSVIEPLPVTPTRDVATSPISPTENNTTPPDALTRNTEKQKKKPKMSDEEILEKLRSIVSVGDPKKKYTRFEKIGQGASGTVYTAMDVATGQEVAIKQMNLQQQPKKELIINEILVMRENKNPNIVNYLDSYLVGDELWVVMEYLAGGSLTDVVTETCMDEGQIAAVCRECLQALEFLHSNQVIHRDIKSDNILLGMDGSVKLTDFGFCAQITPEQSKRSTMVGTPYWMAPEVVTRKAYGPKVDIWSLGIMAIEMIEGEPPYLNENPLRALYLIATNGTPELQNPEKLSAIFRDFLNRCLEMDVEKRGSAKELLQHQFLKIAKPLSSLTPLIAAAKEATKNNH

[11] = target: T3, Phosphatidylinositol 5-phosphate 4-kinase type-2 beta (Homo sapiens) (UniProt P78356); experiment: Selectivity interaction (KinomeScan (DiscoverX)) EUB0000045b PIP4K2B
T3 sequence (whole entry): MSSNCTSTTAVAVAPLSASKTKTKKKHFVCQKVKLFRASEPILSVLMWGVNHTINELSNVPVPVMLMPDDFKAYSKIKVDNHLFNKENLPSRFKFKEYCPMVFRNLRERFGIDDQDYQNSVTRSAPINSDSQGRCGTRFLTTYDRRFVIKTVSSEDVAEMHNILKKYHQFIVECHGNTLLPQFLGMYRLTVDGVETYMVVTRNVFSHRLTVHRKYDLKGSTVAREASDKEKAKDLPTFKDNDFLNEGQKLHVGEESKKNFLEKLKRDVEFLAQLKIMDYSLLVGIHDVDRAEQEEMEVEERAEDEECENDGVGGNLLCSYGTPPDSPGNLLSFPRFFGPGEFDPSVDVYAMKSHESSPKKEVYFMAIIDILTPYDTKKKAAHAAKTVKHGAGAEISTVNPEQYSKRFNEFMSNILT

[12] = target: Phosphatidylinositol 4-phosphate 3-kinase C2 domain-containing subunit beta (Homo sapiens) (UniProt O00750); experiment: Selectivity interaction (KinomeScan (DiscoverX)) EUB0001619a PIK3C2B; conditions: at 1 µM
Phosphatidylinositol 4-phosphate 3-kinase C2 domain-containing subunit beta (Homo sapiens), sequence (O00750 whole entry, the tested form may be a part): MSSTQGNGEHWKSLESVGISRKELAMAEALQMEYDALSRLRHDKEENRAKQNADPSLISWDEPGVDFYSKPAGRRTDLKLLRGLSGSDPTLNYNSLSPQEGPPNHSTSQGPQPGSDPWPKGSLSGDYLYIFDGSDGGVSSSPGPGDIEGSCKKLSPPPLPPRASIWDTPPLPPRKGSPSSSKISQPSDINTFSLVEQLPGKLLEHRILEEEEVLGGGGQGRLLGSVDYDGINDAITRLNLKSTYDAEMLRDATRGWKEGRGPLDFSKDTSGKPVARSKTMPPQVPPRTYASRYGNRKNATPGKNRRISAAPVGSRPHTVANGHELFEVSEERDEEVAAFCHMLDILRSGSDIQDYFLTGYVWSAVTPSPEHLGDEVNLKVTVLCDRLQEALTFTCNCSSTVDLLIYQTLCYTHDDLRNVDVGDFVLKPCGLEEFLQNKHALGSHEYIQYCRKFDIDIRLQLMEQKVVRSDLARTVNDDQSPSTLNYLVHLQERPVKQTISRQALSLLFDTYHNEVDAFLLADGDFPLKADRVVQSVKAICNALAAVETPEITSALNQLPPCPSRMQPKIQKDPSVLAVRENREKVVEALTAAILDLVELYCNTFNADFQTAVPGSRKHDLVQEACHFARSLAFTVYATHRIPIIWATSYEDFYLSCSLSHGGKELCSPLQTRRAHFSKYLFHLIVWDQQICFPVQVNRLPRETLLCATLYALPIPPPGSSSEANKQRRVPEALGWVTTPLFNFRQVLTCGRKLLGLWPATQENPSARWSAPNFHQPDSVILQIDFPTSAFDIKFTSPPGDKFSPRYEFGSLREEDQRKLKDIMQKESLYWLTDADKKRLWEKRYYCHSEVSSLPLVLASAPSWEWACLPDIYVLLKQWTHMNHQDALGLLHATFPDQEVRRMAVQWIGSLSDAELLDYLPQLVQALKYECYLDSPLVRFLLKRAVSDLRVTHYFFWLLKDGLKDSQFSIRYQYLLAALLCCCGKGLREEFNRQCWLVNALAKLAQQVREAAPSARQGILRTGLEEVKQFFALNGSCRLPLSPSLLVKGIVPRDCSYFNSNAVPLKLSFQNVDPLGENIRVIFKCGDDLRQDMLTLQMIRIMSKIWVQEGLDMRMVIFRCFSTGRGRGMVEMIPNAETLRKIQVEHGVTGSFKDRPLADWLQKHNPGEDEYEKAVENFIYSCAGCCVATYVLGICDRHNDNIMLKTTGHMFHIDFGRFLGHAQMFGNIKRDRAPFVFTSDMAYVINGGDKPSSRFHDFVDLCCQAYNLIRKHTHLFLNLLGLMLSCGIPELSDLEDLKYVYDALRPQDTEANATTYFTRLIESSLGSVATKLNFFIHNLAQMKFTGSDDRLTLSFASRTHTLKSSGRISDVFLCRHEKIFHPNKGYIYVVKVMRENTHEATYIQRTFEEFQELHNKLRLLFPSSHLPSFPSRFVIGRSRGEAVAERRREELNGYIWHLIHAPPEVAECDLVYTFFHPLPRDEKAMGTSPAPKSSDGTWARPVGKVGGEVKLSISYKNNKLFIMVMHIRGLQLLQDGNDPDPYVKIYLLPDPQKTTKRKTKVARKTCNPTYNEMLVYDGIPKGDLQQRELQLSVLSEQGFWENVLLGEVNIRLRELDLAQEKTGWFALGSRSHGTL

RAC-alpha serine/threonine-protein kinase, sequence (P31749 whole entry): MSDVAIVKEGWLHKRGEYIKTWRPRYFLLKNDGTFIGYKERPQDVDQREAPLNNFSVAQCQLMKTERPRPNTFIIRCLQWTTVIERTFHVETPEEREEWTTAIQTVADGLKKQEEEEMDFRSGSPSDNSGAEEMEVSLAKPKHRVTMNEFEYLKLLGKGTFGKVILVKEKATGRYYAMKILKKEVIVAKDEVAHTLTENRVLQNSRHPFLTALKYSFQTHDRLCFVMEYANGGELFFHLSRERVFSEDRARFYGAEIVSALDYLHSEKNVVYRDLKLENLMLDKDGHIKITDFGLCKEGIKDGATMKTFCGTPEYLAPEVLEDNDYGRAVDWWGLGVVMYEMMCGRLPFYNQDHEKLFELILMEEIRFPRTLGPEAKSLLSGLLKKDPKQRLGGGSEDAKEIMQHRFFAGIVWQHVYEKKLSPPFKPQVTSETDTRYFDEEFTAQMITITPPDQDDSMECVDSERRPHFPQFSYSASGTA

- IC50 [1]: > 10 µM
SMILES: CCC(=O)N1CC[C@H](Nc2ncnc3c2CN(c2cnc(OC)c(C(F)(F)F)c2)CC3)C1 [LENIOLISIB]

- % of inhibition [2]: 27%
SMILES: Cc1ccc(-c2ccc3c(ccc4sc5c(c43)NC[C@@H](C)NC5=O)n2)cn1

- % of control [3]: 100%
- % of control [4]: 100%
SMILES: CCN(CC)CCCCNc1ncc2cc(-c3cc(OC)cc(OC)c3)c(NC(=O)NC(C)(C)C)nc2n1

SMILES: COc1cc(Nc2nc(C)cc(-c3cnn4nc(OC)ccc34)n2)cc(C(F)(F)F)c1
- % of control [5]: 90%

SMILES: CN(C)C/C=C/C(=O)Nc1ccc(C(=O)N2CCCC(Nc3ncc(Cl)c(-c4c[nH]c5ccccc45)n3)C2)cc1 (stereo not drawn)
- % of control [6]: 68%
- % of control [7]: 89%
- % of control [8]: 71%
- % of control [9]: 90%

SMILES: CN(C)CCOc1ccc(-c2nc(-c3ccncc3)c(-c3ccc4c(c3)CC/C4=N\O)[nH]2)cc1
- % of control [10]: 87%

SMILES: C=CC(=O)Nc1cc(-n2c(=O)ccc3cnc4ccc(-c5ccc(NS(C)(=O)=O)cc5)cc4c32)ccc1C
- % of control ([11]; at 1 µM): 93%
- % of control ([11]; at 10 µM): 63%

SMILES: N#Cc1cccc(-c2c[nH]c3ncnc(N4CCOCC4)c23)c1
- % of control [12]: 100%
